target: T1, wild type human POLγ (POLγA:WT) (Homo sapiens, UniProt P54098); assay: DNA polymerization assay, wild type POLγ; format: biochemical; conditions: 0.1 μM dNTP, read-out: WT AC50 (μM) at 0.1 μM
T1 sequence (P54098 1-1239): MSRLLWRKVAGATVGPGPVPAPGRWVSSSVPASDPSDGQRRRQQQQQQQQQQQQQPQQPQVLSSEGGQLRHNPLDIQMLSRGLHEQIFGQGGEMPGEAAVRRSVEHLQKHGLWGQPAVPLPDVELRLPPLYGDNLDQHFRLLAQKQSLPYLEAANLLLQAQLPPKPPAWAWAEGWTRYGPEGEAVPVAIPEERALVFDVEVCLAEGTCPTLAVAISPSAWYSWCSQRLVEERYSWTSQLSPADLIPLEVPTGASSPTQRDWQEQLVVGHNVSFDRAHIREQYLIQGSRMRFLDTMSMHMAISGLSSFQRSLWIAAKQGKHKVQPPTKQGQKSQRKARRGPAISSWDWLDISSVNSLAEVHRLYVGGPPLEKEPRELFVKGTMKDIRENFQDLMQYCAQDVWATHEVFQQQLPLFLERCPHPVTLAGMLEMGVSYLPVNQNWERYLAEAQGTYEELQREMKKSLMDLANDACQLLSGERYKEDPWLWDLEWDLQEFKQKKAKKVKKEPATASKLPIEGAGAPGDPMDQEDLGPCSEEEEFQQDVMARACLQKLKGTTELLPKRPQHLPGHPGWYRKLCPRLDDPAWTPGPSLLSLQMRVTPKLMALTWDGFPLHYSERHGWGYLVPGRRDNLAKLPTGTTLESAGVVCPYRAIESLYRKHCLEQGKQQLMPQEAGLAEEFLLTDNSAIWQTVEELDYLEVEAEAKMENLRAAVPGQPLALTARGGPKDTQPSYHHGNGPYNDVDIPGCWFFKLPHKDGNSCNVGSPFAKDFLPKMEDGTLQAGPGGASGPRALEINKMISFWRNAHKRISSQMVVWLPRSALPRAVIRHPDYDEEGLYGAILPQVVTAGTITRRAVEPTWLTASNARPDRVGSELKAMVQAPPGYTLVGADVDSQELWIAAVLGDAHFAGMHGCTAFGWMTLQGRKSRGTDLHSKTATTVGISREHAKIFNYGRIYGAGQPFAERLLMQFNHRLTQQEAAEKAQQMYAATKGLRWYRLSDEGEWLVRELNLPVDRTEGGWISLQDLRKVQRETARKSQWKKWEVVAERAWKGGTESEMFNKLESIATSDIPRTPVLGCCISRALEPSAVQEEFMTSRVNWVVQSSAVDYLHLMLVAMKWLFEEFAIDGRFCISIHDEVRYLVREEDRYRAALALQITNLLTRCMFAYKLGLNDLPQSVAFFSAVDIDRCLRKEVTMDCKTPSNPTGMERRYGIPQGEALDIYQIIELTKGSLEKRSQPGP
T1 sequence (Q9UHN1 1-485 partner): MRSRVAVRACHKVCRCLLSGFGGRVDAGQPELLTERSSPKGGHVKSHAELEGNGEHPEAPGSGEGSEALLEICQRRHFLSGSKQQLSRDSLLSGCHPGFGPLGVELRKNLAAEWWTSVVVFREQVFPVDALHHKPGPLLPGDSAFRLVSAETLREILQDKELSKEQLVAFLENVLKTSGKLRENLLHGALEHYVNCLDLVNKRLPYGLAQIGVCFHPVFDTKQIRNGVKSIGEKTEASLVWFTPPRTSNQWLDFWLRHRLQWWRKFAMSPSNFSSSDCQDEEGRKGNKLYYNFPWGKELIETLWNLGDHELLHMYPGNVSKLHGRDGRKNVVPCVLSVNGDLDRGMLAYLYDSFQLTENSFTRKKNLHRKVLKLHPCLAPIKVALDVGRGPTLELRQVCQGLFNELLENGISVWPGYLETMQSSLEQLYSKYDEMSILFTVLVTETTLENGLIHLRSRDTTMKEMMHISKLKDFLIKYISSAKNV

Structure (SMILES)	AC50
Cc1csc(-c2ccccc2NS(=O)(=O)c2cc(C)c(Cl)cc2C)n1 [Example 80, 4-chloro-2,5-dimethyl-N-(2-(4-methylthiazol-2-yl)phenyl)benzenesulfonamide]	> 100 µM

same assay, conditions: 100 μM dNTP, read-out: WT AC50 (μM) at 100 μM

Structure (SMILES)	AC50
Cc1cc(S(=O)(=O)Nc2ccc3ccn(C)c3c2)c(C)cc1Cl [Example 72, 4-chloro-2,5-dimethyl-N-(1-methyl-1H-indol-6-yl)benzenesulfonamide]	4 µM
Cc1nc2ccc(NS(=O)(=O)c3cc(C)c(Cl)cc3C)cc2s1 [Example 73, 4-chloro-2,5-dimethyl-N-(2-methylbenzo[d]thiazol-6-yl)benzenesulfonamide]	2 µM
Cc1cc(S(=O)(=O)Nc2cccc(-c3ncc(C4CC4)s3)c2)c(C)cc1Cl [Example 76, 4-chloro-N-(3-(5-cyclopropylthiazol-2-yl)phenyl)-2,5-dimethylbenzenesulfonamide]	0.4 µM
Cc1cc(S(=O)(=O)Nc2csc(-c3ccccc3)n2)c(C)cc1Cl [Example 81, 4-chloro-2,5-dimethyl-N-(2-phenylthiazol-4-yl)benzenesulfonamide]	0.2 µM
Cc1cnc(-c2ccc(NS(=O)(=O)c3cc(C)c(Cl)cc3C)cc2)s1 [Example 83, 4-chloro-2,5-dimethyl-N-(4-(5-methylthiazol-2-yl)phenyl)benzenesulfonamide]	6 µM
Cc1cc(S(=O)(=O)Nc2cccc(-c3ncc(CN(C)C)s3)c2)c(C)cc1Cl [Example 87, 4-chloro-N-(3-(5-((dimethylamino)methyl)thiazol-2-yl)phenyl)-2,5-dimethylbenzenesulfonamide]	4 µM
Cc1cc(S(=O)(=O)Nc2cccc(-c3ncc(CO)s3)c2)c(C)cc1Cl [Example 89, 4-chloro-N-(3-(5-(hydroxymethyl)thiazol-2-yl)phenyl)-2,5-dimethylbenzenesulfonamide]	0.3 µM

From patent US20260138961A1, “MODULATORS OF MITOCHONDRIAL DNA REPLICATION” (Pretzel Therapeutics, Inc., priority 2022, published 2026)
